Our source for the Km values is paper PMC2762193 (Journal of the American Chemical Society, 2009).

This test addresses wtTaq polymerase (Thermus aquaticus, UniProt P19821). Kind of test: gel-based steady-state single nucleotide incorporation, […]-labelled primer. It counts as biochemical. Particulars: 1 x Taq buffer, 60 °C.

The structures appear in SMILES notation.

wtTaq polymerase, sequence (P19821 whole entry): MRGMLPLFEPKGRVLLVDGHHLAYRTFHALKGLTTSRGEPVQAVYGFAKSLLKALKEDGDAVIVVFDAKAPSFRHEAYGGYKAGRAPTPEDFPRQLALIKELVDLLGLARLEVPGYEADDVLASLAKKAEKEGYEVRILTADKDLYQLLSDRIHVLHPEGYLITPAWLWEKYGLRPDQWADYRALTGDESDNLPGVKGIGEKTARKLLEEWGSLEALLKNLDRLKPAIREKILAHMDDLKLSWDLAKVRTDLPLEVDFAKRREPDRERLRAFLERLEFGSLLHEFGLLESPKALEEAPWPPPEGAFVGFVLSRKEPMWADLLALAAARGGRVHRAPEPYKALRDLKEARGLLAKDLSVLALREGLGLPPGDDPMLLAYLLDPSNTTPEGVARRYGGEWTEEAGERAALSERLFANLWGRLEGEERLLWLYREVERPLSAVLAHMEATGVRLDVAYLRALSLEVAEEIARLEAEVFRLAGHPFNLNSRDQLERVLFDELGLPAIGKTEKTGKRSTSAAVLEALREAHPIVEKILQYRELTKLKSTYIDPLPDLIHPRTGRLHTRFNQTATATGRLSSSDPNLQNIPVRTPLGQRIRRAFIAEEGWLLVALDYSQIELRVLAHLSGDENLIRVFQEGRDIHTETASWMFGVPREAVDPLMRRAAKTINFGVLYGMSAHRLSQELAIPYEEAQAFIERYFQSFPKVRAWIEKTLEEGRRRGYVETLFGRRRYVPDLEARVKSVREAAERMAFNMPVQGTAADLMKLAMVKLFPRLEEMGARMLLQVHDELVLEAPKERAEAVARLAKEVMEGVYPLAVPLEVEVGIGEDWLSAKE

As for `Nc1ncnc2c1ncn2[C@H]1C[C@H](O)[C@@H](COP(=O)(O)OP(=O)(O)OP(=O)(O)O)O1` [dATP], for the setting “opposite template d5NI or d5NIC”, the Km result is on record as “incorporation of dNTPs opposite template d5NIC”.

Turning to `Cc1cn([C@H]2C[C@H](O)[C@@H](COP(=O)(O)OP(=O)(O)OP(=O)(O)O)O2)c(=O)[nH]c1=O` [dTTP], for the setting “opposite template dA”, the Km entry is on record as “incorporation of dTTP opposite dA or dGTP opposite dC”.

Consider `Nc1nc2c(ncn2[C@H]2C[C@H](O)[C@@H](COP(=O)(O)OP(=O)(O)OP(=O)(O)O)O2)c(=O)[nH]1` [dGTP], for which, for the setting “opposite template dC”, the Km entry was “incorporation of dTTP opposite dA or dGTP opposite dC”.
